A short description of the data set: Solubility of antibiotics and polymer in organic solvents.

Turning to `CC[C@H]1OC(=O)[C@H](C)[C@@H](O[C@H]2C[C@@](C)(OC)[C@@H](O)[C@H](C)O2)[C@H](C)[C@@H](O[C@@H]2O[C@H](C)C[C@H](N(C)C)[C@H]2O)[C@](C)(O)C[C@@H](C)C(=O)[C@H](C)[C@@H](O)[C@]1(C)O` [erythromycin], the “solubility in ethyl acetate, dichloromethane, and tetrahydrofuran” value was “dissolved”.

Source of the values: patent publication US20100215716A1, “COMPOSITIONS AND METHODS FOR COATING ORTHOPEDIC IMPLANTS” (Biomet Manufacturing Corp., priority 2009, published 2010).
